Data from patent US12227491B2, “EGFR inhibitors” (INVENTISBIO CO., LTD., priority 2018, dated 2025).
Like-named read-outs stand apart in the source and are kept apart here.

Tests used:
wild-type EGFR (WT-EGFR) = wild-type EGFR (WT-EGFR) (Homo sapiens, UniProt P00533); conditions: major metabolite of AZD9291; cited from earlier work
[1] = Solid-state stability of Form I under thermal treatment and mechanical grinding (XRPD); assay type: physicochemical
Experimental: POWDER X-RAY DIFFRACTION (XRPD): The solid samples from screening were examined using X-ray diffractometer (Bruker D8 advance). The system is equipped with LynxEye detector. The samples were scanned from 3 to 40° 2θ, at a step size 0.02° 2θ. The tube voltage and current were 40 KV and 40 mA, respectively. The sample was transferred from sample container onto zero background XRD-holder and gently ground.
DSC ANALYSIS: DSC analysis was conducted on a TA Instruments Q200. The calibration standard was indium. A sample in weight was placed into a TA DSC pan, and weight accurately recorded. Crimped pans were used for analysis and the samples were heated under nitrogen (50 mi/min) at a rate of 10° C./min, up to a final temperature.

[2] = Hygroscopicity of crystalline Form I on storage at 25° C., 80% relative humidity; assay type: physicochemical
NSCLC patients = conditions: cited from earlier work

Chain of wild-type EGFR (WT-EGFR) (P00533 25-1210): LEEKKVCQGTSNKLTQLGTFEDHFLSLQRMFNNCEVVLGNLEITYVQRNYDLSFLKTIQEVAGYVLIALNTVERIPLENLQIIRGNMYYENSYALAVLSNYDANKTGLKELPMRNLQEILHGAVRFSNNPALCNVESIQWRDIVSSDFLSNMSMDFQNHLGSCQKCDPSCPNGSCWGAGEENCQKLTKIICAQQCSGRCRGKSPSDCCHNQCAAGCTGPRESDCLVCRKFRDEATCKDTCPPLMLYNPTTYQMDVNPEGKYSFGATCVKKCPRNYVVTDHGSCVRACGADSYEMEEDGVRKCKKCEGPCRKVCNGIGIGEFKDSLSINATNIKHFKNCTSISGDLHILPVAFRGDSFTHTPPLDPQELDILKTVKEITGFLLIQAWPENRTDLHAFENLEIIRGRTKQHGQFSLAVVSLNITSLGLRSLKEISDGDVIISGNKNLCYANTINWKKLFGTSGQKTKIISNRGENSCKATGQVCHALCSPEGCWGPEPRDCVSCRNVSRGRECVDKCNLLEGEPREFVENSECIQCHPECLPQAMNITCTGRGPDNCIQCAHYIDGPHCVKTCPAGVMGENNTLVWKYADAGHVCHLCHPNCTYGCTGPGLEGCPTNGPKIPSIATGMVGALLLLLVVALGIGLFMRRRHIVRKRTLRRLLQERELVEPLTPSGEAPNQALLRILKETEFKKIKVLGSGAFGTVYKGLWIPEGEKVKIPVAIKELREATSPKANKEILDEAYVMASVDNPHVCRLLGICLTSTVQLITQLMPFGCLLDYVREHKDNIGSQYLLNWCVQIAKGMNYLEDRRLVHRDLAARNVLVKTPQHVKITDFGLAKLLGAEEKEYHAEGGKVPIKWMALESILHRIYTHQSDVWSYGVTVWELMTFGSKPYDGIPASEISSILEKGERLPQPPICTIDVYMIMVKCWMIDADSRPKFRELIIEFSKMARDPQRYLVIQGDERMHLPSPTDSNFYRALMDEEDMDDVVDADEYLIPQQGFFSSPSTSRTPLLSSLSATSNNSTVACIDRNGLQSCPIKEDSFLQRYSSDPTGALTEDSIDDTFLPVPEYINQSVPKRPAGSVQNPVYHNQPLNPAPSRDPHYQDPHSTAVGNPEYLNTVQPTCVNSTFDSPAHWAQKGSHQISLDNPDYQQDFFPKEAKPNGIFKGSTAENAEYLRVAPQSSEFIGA

For `C=CC(=O)Nc1cc(Nc2nccc(-c3c[nH]c4ccccc34)n2)c(OC)cc1N(C)CCN(C)C` [AZ5104], the “inhibitory effect on wild-type EGFR” value (wild-type EGFR (WT-EGFR)) is listed as “strong inhibitory effect”.

For `C=CC(=O)Nc1cc(Nc2nccc(-c3cn(CC(F)(F)F)c4ccccc34)n2)c(OC)cc1N(C)CCN(C)C` [Compound 5, N-(2-((2-(dimethylamino)ethyl)(methyl)amino)-4-methoxy-5-((4-(1-(2,2,2-trifluoroethyl)-1H-indol-3-yl)pyrimidin-2-yl)amino)phenyl)acrylamide monomesylate], the “crystallinity after mechanical grinding” value ([1]; Form I grinded mechanically) was “some loss of crystallinity”, the “solid form after thermal treatment” value ([1]; crystals heated in DSC cells to 220° C., then immediately placed into ice (quench), XRPD) was “converted into an amorphous form” and the “increase in weight upon storing” value ([2]; 25° C., relative humidity of 80%) was “only negligible increase in weight”. The hygroscopicity ([2]; crystalline Form I) was “non-hygroscopic”.

In the case of `C#Cc1cccc(Nc2ncnc3cc(OCCOC)c(OCCOC)cc23)c1` [erlotinib], the “share of patients in whom the drug has effect” value (“share of patients” below) (NSCLC patients; Asian NSCLC patients) is given as “about 35%” and the “share of patients” value (NSCLC patients; Caucasian patients with NSCLC) is given as “about 10%”.

For `COc1cc2ncnc(Nc3ccc(F)c(Cl)c3)c2cc1OCCCN1CCOCC1` [gefitinib], the “share of patients” value (NSCLC patients; Asian NSCLC patients) is given as “about 35%” and the “share of patients” value (NSCLC patients; Caucasian patients with NSCLC) is given as “about 10%”.
